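How tested: cells in 96-well plates exposed to compound for 48 hours at five concentrations. Abbreviation: GI50, concentration required for 50% inhibition of growth. Definition used: TGI = concentration required for complete inhibition of growth.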 Where a SMILES comes first, the peptide text is derived from it. [ ]: non-standard residue; d: D form. The star is where a group is joined. X28 = COC1=CC(=O)N(C(=O)[C@@H](O*)C(C)C)[C@H]1Cc1ccccc1; Bn2Val = CC(C)[C@@H](C(=O)*)N(Cc1ccccc1)Cc1ccccc1; NMeV = CN[C@H](C(=O)O)C(C)C; dNMeA = CN[C@H](C)C(=O)O
Experiments:
Experiment in all cases: NCI tumour cell line growth inhibition, 48 h
DU-145 prostate = tested on: DU-145 prostate
EKVX NSCLC = tested on: EKVX NSCLC
HCT-116 colon = tested on: HCT-116 colon
HS 578T breast = tested on: HS 578T breast
HT29 colon = tested on: HT29 colon
LOX IMVI melanoma = tested on: LOX IMVI melanoma
MCF7 breast = tested on: MCF7 breast
MDA-MB-231 breast = tested on: MDA-MB-231 breast
SNB-19 CNS = tested on: SNB-19 CNS
UACC-62 melanoma = tested on: UACC-62 melanoma

Structure (SMILES) | TGI (DU-145 prostate) | TGI (EKVX NSCLC) | TGI (HCT-116 colon) | TGI (HS 578T breast) | TGI (HT29 colon) | TGI (LOX IMVI melanoma) | TGI (MCF7 breast) | TGI (MDA-MB-231 breast) | TGI (SNB-19 CNS) | TGI (UACC-62 melanoma) | GI50 (DU-145 prostate) | GI50 (EKVX NSCLC) | GI50 (HCT-116 colon) | GI50 (HS 578T breast) | GI50 (HT29 colon) | GI50 (LOX IMVI melanoma) | GI50 (MCF7 breast) | GI50 (MDA-MB-231 breast) | GI50 (SNB-19 CNS) | GI50 (UACC-62 melanoma)
O=C(CNc1nccs1)Nn1cnc2ccc(S(=O)(=O)Nc3nccs3)cc2c1=O | > 100 µM | > 100 µM | > 100 µM | > 100 µM | > 100 µM | > 100 µM | > 100 µM | > 100 µM | > 100 µM | > 100 µM |  |  |  |  |  |  |  |  |  | 
C=CC(C)(C)C1(CC(OC)OC)C(=O)N(C)c2ccccc21 (stereo not given) | > 25 µM | > 25 µM | > 25 µM | > 25 µM | > 25 µM | > 25 µM | > 25 µM | > 25 µM | > 25 µM | > 25 µM |  |  |  |  |  |  |  |  |  | 
c1ccc(C(c2cccc3c2ccc2ccccc23)C(c2ccccc2)c2cccc3c2ccc2ccccc23)cc1 (stereo not given) | > 100 µM | > 100 µM | > 100 µM | > 100 µM | > 100 µM | > 100 µM | > 100 µM | > 100 µM | > 100 µM | > 100 µM |  |  |  |  |  |  |  |  |  | 
C/C(=N/NC(=S)N(C)C)c1ccccc1O | > 100 µM | > 100 µM | 34.8 µM | > 100 µM | > 100 µM | > 75.1 µM | > 40.4 µM | > 100 µM | > 100 µM | 27 µM |  |  |  |  |  |  |  |  |  | 
CCOC(=O)C1(C#N)C2(C#N)C(N)=NC(ON=C(C)C)(ON=C(C)C)C12C#N (stereo not given) | > 100 µM | > 100 µM | > 100 µM | > 100 µM | > 100 µM | > 100 µM | > 100 µM | > 100 µM | > 100 µM | > 100 µM |  |  |  |  |  |  |  |  |  | 
COc1cc(NS(C)(=O)=O)ccc1NCc1cnc2ccc3[nH]cccc3c12 | > 70.3 µM | 57.7 µM | > 70 µM | 47.5 µM | 73.9 µM | 63.4 µM | 59 µM | 51 µM | > 89.1 µM | 35.8 µM |  |  |  |  |  |  |  |  |  | 
N#CCCN(CCC#N)c1ccc(/C=C2\SC(=S)NC2=O)cc1 | > 100 µM | > 100 µM | > 100 µM | > 100 µM | > 100 µM | > 100 µM | > 100 µM | > 100 µM | > 100 µM | > 100 µM |  |  |  |  |  |  |  |  |  | 
Nc1ncnc2c1ncn2C1OC(CO)C(O)C1NS(=O)(=O)c1ccccc1 (stereo not given) | > 100 µM | > 100 µM | > 100 µM | > 100 µM | > 100 µM | > 100 µM | > 100 µM | > 100 µM | > 100 µM | > 100 µM |  |  |  |  |  |  |  |  |  | 
COC(=O)[C@H]1[C@@H](O)[C@@]2(O)c3c(OC)cc(OC)cc3O[C@@]2(c2ccc3c(c2)OCO3)[C@@H]1c1ccccc1 | 4.51 µM | > 33.3 µM | 0.4 µM | 2.13 µM | 0.273 µM | 0.014 µM | 0.0618 µM | 0.211 µM | 0.00512 µM | > 50 µM |  |  |  |  |  |  |  |  |  | 
O=C(/C=C/c1ccc2c(c1)OCO2)NCCc1ccco1 | > 100 µM | > 100 µM | > 100 µM | > 100 µM | > 100 µM | > 100 µM | > 100 µM | > 100 µM | > 100 µM | > 100 µM |  |  |  |  |  |  |  |  |  | 
NC(=S)Nc1ccc2c(c1)oc1ccccc12 | > 100 µM | > 100 µM | > 100 µM | > 100 µM | > 100 µM | > 100 µM | > 100 µM | > 100 µM | > 100 µM | > 100 µM |  |  |  |  |  |  |  |  |  | 
COc1cc(OCc2nc3cc(C(F)(F)F)ccc3nc2-c2ccccc2)cc(OC)c1OC | > 100 µM | > 100 µM | > 100 µM | > 100 µM | > 100 µM | > 100 µM | > 100 µM | > 100 µM | > 100 µM | > 100 µM |  |  |  |  |  |  |  |  |  | 
Cc1nc2ccccc2c(=O)n1NC(=O)c1ccccc1[N+](=O)[O-] | > 100 µM | > 100 µM | > 100 µM | > 100 µM | > 100 µM | > 100 µM | > 100 µM | > 100 µM | > 100 µM | > 100 µM |  |  |  |  |  |  |  |  |  | 
N#C/C=c1/c2ccccc2n2nc3ccccc3c12 | > 100 µM | > 100 µM | 12.1 µM | > 100 µM | > 100 µM | > 100 µM | > 100 µM | 16.6 µM | 40 µM | > 100 µM |  |  |  |  |  |  |  |  |  | 
C=C1C(=O)[C@]23C[C@H]1C[C@@H](O)[C@H]2[C@]1(COC3=O)[C@@H](OC(C)=O)CC[C@@](C)(COC(C)=O)[C@H]1C=O | > 50 µM | > 50 µM | > 50 µM | > 50 µM | > 50 µM | > 50 µM | > 50 µM | > 50 µM | > 50 µM | > 50 µM |  |  |  |  |  |  |  |  |  | 
Cc1ccc(S(=O)(=O)/N=C2/N(C)CCCS2(=O)=O)cc1 | > 100 µM | > 100 µM | > 100 µM | > 100 µM | > 100 µM | > 100 µM | > 100 µM | 31.9 µM | > 100 µM | > 100 µM |  |  |  |  |  |  |  |  |  | 
N#C/C(=C/n1c(=S)[nH]c2ccccc21)C(N)=O | > 100 µM | > 100 µM | > 100 µM | > 100 µM | > 100 µM | > 100 µM | > 100 µM | > 100 µM | > 100 µM | > 100 µM |  |  |  |  |  |  |  |  |  | 
COC1=CC(=O)N(C(=O)[C@@H](OC(=O)[C@@H](C)N(C)C(=O)[C@@H]2CCCN2C(=O)[C@H](C(C)C)N(C)C(=O)[C@@H](NC(=O)[C@H](C(C)C)N(Cc2ccccc2)Cc2ccccc2)C(C)C)C(C)C)[C@H]1Cc1ccccc1 (Bn2Val-V[NMeV]P[dNMeA]-X28) | > 100 µM | > 100 µM | > 100 µM | > 100 µM | > 100 µM | > 100 µM | > 100 µM | > 77.6 µM | > 100 µM | > 100 µM |  |  |  |  |  |  |  |  |  | 
C=CCNc1nc(O)c(/C=C2\C=Nc3ncccc32)s1 | 21.6 µM | > 100 µM | > 100 µM | 9.66 µM | > 100 µM | > 100 µM | > 100 µM | 6.63 µM | 7.29 µM | 4.22 µM | 2.21 µM | 3.4 µM | 1.52 µM | 2.03 µM | 3.05 µM | 2.73 µM | 2.2 µM | 2.44 µM | 2.32 µM | 1.69 µM
COc1ccc(C(=O)c2c(-c3ccccc3NC(=O)C(F)(F)F)[nH]c3ccccc23)cc1 | 17 µM | 24.4 µM | 25.5 µM | 46.9 µM | 16.5 µM | 16.1 µM | 17.2 µM | 21.4 µM | 21.6 µM | 25.8 µM |  |  |  |  |  |  |  |  |  | 
C[C@]12C(=O)C=CCC1=CC[C@@H]1[C@@H]2[C@H]2CC3(O)C(=O)O[C@@]4(C)[C@H]5C[C@@]6(C)[C@@H]7[C@@]2(O)[C@]1(OC[C@H]6C(=O)O5)O[C@]734 (stereo not given in full) | > 100 µM | > 100 µM | > 100 µM | > 100 µM | > 100 µM | 75.5 µM | > 100 µM | > 100 µM | > 100 µM | > 100 µM |  |  |  |  |  |  |  |  |  | 
COC1=CC(=O)c2c(cc(COP(N)(=O)N(CCCl)CCCl)n2C)C1=O (stereo not given) | 5.71 µM | 1.62 µM | 0.707 µM | > 100 µM | 4.33 µM | 1.73 µM | 9.55 µM | 8.42 µM | 14.2 µM | 2.16 µM |  |  |  |  |  |  |  |  |  | 

Reference: PubChem BioAssay (NCI)
